Assay results published in ChEMBL document CHEMBL1153667, “6N-Cinnamoyl--naltrexamine and its p-nitro derivative. High efficacy -opioid agonists with weak antagonist actions” (Bioorg Med Chem Lett, 1996).
Calls of active or inactive are those of the source. The calls are words filed in the database; no cut-off is given here.

Tests used:
Mus musculus = species: Mus musculus; experiment: Antagonism by the selective kappa-antagonist nor-binaltorphimine (nor-BNl) in mouse vas deferens(MVD) preparations; assay type: functional
[1] = target: T1, Kappa-type opioid receptor (Mus musculus, UniProt P33534); experiment: Compound was evaluated for kappa opioid receptor mediated agonistic effect in mouse vas deferens(MVD) preparations; assay type: functional
[2] = target: T2, Kappa-type opioid receptor (Cavia porcellus, UniProt P41144); experiment: Compound was evaluated for binding affinity against [3H]- U-69593 labeled kappa1 opioid receptor in guinea-pig brain homogenate.; assay type: tissue-based
Mu-type opioid receptor = Mu-type opioid receptor (Cavia porcellus, UniProt P97266); experiment: Compound was evaluated for binding affinity against [3H]- DAMGO labeled mu opioid receptor in guinea-pig brain homogenate.; assay type: tissue-based
Cavia porcellus [3] = species: Cavia porcellus; experiment: Antagonism by the selective kappa-antagonist nor-binaltorphimine (nor-BNl) in electrically stimulated guinea-pig ileum; assay type: functional
[4] = target: T2, Kappa-type opioid receptor; experiment: Compound was evaluated for binding affinity against [3H]- bremazocine labeled kappa2 opioid receptor in guinea-pig brain homogenate.; assay type: tissue-based
[5] = target: T2, Kappa-type opioid receptor; experiment: Compound was evaluated for kappa opioid receptor mediated agonistic effect in electrically stimulated guinea-pig ileum; assay type: functional, tissue-based
Cavia porcellus [6] = species: Cavia porcellus; experiment: Antagonism by the selective kappa-antagonist nor-binaltorphimine (nor-BNl) in electrically stimulated guinea-pig ileum; No inhibition; assay type: functional
[7] = target: T1, Kappa-type opioid receptor; experiment: Compound was evaluated for kappa opioid receptor mediated agonistic effect in mouse vas deferens(MVD) preparations; Not an agonist; assay type: functional

T1 sequence (P33534 whole entry): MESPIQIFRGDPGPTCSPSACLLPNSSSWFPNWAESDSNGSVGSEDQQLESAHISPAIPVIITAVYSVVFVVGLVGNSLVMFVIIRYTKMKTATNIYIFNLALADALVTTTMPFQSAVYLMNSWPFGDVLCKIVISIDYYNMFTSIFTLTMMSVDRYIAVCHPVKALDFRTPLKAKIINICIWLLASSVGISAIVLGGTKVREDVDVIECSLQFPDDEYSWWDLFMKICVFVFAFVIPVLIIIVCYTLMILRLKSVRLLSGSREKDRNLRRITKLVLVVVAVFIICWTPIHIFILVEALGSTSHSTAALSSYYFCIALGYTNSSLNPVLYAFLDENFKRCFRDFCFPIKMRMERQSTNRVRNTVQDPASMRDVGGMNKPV
Sequence of Mu-type opioid receptor (P97266 whole entry): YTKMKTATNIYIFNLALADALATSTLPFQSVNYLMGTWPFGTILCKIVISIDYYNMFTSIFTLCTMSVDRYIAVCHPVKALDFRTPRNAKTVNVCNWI
T2 sequence (P41144 whole entry): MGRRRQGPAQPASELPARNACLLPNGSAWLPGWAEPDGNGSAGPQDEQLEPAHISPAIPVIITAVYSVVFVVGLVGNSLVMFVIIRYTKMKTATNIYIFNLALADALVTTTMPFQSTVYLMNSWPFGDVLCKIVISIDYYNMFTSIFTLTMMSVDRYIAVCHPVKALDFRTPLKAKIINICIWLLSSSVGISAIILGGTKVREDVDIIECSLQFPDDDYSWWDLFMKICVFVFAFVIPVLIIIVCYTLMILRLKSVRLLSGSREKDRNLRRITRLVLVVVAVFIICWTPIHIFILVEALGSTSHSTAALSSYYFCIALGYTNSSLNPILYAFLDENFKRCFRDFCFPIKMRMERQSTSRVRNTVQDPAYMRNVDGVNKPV

SMILES | Ke (Mus musculus) | IC50 [1] | Ki [2] | Ki (Mu-type opioid receptor) | Ke (Cavia porcellus [3]) | Ki [4] | IC50 [5] | Ke (Cavia porcellus [6]) | IC50 [7]
O=C(/C=C/c1ccccc1)N[C@@H]1CC[C@@]2(O)[C@H]3Cc4ccc(O)c5c4[C@@]2(CCN3CC2CC2)[C@H]1O5 | 5.1 nM | 0.0056 µM | 0.2 nM | 0.07 nM | 0.5 nM | 12.8 nM | 0.4 nM | – | –
Cc1ccc(/C=C/C(=O)N[C@@H]2CC[C@@]3(O)[C@H]4Cc5ccc(O)c6c5C3(CCN4CC3CC3)[C@H]2O6)cc1 | – | 17.1 µM | 0.6 nM | 0.23 nM | 0.2 nM | 171 nM | 12.6 nM | – | –
O=C(/C=C/c1ccc([N+](=O)[O-])cc1)N[C@@H]1CC[C@@]2(O)[C@H]3Cc4ccc(O)c5c4C2(CCN3CC2CC2)[C@H]1O5 | – | – | 0.8 nM | 0.2 nM | – | 30.5 nM | 13.4 nM | inactive | Not Active
O=C(/C=C/c1ccc(Cl)cc1)N[C@@H]1CC[C@@]2(O)[C@H]3Cc4ccc(O)c5c4C2(CCN3CC2CC2)[C@H]1O5 | – | – | 0.2 nM | 0.1 nM | 0.3 nM | 48.3 nM | 2.2 nM | – | Not Active
